Among the data in publication PMC11995724, “Antibiotic target discovery by integrated phenotypic and activity-based profiling of electrophilic fragments” (Cell chemical biology, 2025) are viability values, retold here.

A short description of this data set: in vitro. The note with it: human, hek293t cells.
The viability is a read-out of living cells in per cent, often relative to untreated cells. Consider `C[C@H]1CN(C(=O)CCl)CCN1C(=O)c1cscn1` [5-L05, 2-chloro-1-[(3S)-3-methyl-4-(1,3-thiazole-4-carbonyl)piperazin-1-yl]ethan-1-one], for which the viability at 48 h, 25 µM was 2.69%.

Regarding `CNC(=O)C(C#N)=Cc1cccc(-c2ccncc2)c1` [9-L14, 2-cyano-N-methyl-3-[3-(pyridin-4-yl)phenyl]prop-2-enamide], the viability at 48 h, 25 µM was found to be 108%.

In the case of `CC1(C)Cc2cc(C=C(C#N)C(=O)Nc3ccccc3F)ccc2O1` [8-G20, 2-cyano-3-(2,2-dimethyl-2,3-dihydro-1-benzofuran-5-yl)-N-(2-fluorophenyl)prop-2-enamide], the viability at 48 h, 25 µM is 68%.

For the compound `CC(Cl)C(=O)NCCC1(CO)CC1` (centres unmarked) [7-H19, 2-chloro-N-{2-[1-(hydroxymethyl)cyclopropyl]ethyl}propanamide], the viability at 48 h, 25 µM was 90.1%.

For the compound `C[C@H](NC(=O)CCl)C(=O)N1CCCCC1` [7-L14, 2-chloro-N-[(2S)-1-oxo-1-(piperidin-1-yl)propan-2-yl]acetamide], the viability at 48 h, 25 µM was 70.1%.

For `CCOC(=O)c1c2c(nn1C)CCN(C(=O)C(C)Cl)C2` (centres unmarked) [7-I07, ethyl 5-(2-chloropropanoyl)-2-methyl-2H,4H,5H,6H,7H-pyrazolo[4,3-c]pyridine-3-carboxylate], the viability at 48 h, 25 µM is 92.6%.

As for `CS(=O)(=O)c1ccc(C(=O)CCl)cc1` [10-I13, 2-chloro-1-(4-methanesulfonylphenyl)ethan-1-one], the viability at 48 h, 25 µM was found to be 65.1%.

For `C=CC(=O)NCCn1nc(C)cc1C` [3-M13, N-[2-(3,5-dimethyl-1H-pyrazol-1-yl)ethyl]prop-2-enamide], the viability at 48 h, 25 µM was found to be 56.9%.

Turning to `CC(Cl)C(=O)N[C@H]1C[C@H](Cn2cncn2)C1` (some centres unmarked) [6-D20, 2-chloro-N-[(1r,3r)-3-[(1H-1,2,4-triazol-1-yl)methyl]cyclobutyl]propanamide], the viability at 48 h, 25 µM was found to be 105%.

Consider `CC(Cl)C(=O)N(Cc1nc(C2CCCCCC2)no1)C1CC1` (centres unmarked) [7-E05, 2-chloro-N-[(3-cycloheptyl-1,2,4-oxadiazol-5-yl)methyl]-N-cyclopropylpropanamide], for which the viability at 48 h, 25 µM was 78.1%.

With `C=CC(=O)NC1(c2nccc(C(F)(F)F)n2)CC1` [2-D07, N-{1-[4-(trifluoromethyl)pyrimidin-2-yl]cyclopropyl}prop-2-enamide], the viability at 48 h, 25 µM stood at 74.9%.

For `N#CCCN(C(=O)CCl)c1ccccc1` [6-I12, 2-chloro-N-(2-cyanoethyl)-N-phenylacetamide], the viability at 48 h, 25 µM was 1.62%.

`C=CC(=O)NCC1CC(CC(=O)O)CO1` (centres unmarked) [2-E03, 2-{5-[(prop-2-enamido)methyl]oxolan-3-yl}acetic acid]: the viability at 48 h, 25 µM was found to be 182%.

Take `C=CC(=O)Nc1cc(NC(=O)C2(OC)CCOC2)ccc1F` (centres unmarked) [3-D05, N-[4-fluoro-3-(prop-2-enamido)phenyl]-3-methoxyoxolane-3-carboxamide]: the viability at 48 h, 25 µM turned out to be 75.8%.

On to `CCc1ccccc1NC(=O)CN(C)C(=O)CCl` [6-L06, 2-chloro-N-{[(2-ethylphenyl)carbamoyl]methyl}-N-methylacetamide], for which the viability at 48 h, 25 µM turned out to be 0.728%.

With `O=C(CCl)N[C@H]1CCCc2ccccc21` [6-I21, 2-chloro-N-[(1S)-1,2,3,4-tetrahydronaphthalen-1-yl]acetamide], the viability at 48 h, 25 µM was determined as 24%.

With `CC(Cl)C(=O)N1CCC(Oc2ccc(C3CC3)cn2)C1` (centres unmarked) [7-A18, 2-chloro-1-{3-[(5-cyclopropylpyridin-2-yl)oxy]pyrrolidin-1-yl}propan-1-one], the viability at 48 h, 25 µM was 60.4%.

On to `CC(Cl)C(=O)Nc1ccccc1[N+](=O)[O-]` (centres unmarked) [4-G18, 2-chloro-N-(2-nitrophenyl)propanamide], for which the viability at 48 h, 25 µM was determined as 103%.

As for `CC(C)(CNC(=O)CCl)CC1CCOCC1` [6-C04, 2-chloro-N-[2,2-dimethyl-3-(oxan-4-yl)propyl]acetamide], the viability at 48 h, 25 µM turned out to be 130%.

Turning to `CCC(NC(=O)CCl)c1c(C)noc1C` (centres unmarked) [7-D03, 2-chloro-N-[1-(3,5-dimethyl-1,2-oxazol-4-yl)propyl]acetamide], the viability at 48 h, 25 µM came out at 104%.

For `C=CC(=O)Nc1cc(C(=O)O)ccc1O` [1-A12, 4-hydroxy-3-(prop-2-enamido)benzoic acid], the viability at 48 h, 25 µM was 75.1%.

In the case of `Cc1ccc(Cc2cnc(NC(=O)CCl)s2)cc1` [5-K03, 2-chloro-N-{5-[(4-methylphenyl)methyl]-1,3-thiazol-2-yl}acetamide], the viability at 48 h, 25 µM was -0.392%.

For the compound `CC(Cl)C(=O)N1CCCC1c1nc(-c2ccccc2)n[nH]1` (centres unmarked) [7-I09, 2-chloro-1-[2-(3-phenyl-1H-1,2,4-triazol-5-yl)pyrrolidin-1-yl]propan-1-one], the viability at 48 h, 25 µM amounted to 86.8%.

For `C=CC(=O)NCc1ccc(C(=O)NC2CC(=O)N(C)C2)cc1` (centres unmarked) [3-N22, N-(1-methyl-5-oxopyrrolidin-3-yl)-4-[(prop-2-enamido)methyl]benzamide], the viability at 48 h, 25 µM was 81.2%.

In the case of `C=CC(=O)NCCc1ccccc1OC` [2-O03, N-[2-(2-methoxyphenyl)ethyl]prop-2-enamide], the viability at 48 h, 25 µM is 105%.

Take `CN1C(=C(C#N)C(=O)CCl)Sc2ccccc21` [10-G08, 4-chloro-2-(3-methyl-2,3-dihydro-1,3-benzothiazol-2-ylidene)-3-oxobutanenitrile]: the viability at 48 h, 25 µM is 77.5%.

For `Cc1cc(C(=O)CCl)c(C)n1-c1cccc(Cl)c1` [10-N18, 2-chloro-1-[1-(3-chlorophenyl)-2,5-dimethyl-1H-pyrrol-3-yl]ethan-1-one], the viability at 48 h, 25 µM was 0.68%.

Consider `CCOc1ccc(NC(=O)C(C)Cl)cc1` (centres unmarked) [6-O09, 2-chloro-N-(4-ethoxyphenyl)propanamide], for which the viability at 48 h, 25 µM came out at 89.5%.

As for `O=C(CCl)Nc1cccc(S(=O)(=O)N2CCOCC2)c1` [4-P08, 2-chloro-N-[3-(morpholine-4-sulfonyl)phenyl]acetamide], the viability at 48 h, 25 µM turned out to be 0.715%.

For the compound `CC(Cl)C(=O)N1CCN(c2nnnn2-c2ccccc2)CC1` (centres unmarked) [7-I12, 2-chloro-1-[4-(1-phenyl-1H-1,2,3,4-tetrazol-5-yl)piperazin-1-yl]propan-1-one], the viability at 48 h, 25 µM came to 74.2%.

In the case of `CC(C)(C)OC(=O)[C@H]1C[C@@H]1C(=O)CCl` (racemic) [10-C13, rac-tert-butyl (1R,2R)-2-(2-chloroacetyl)cyclopropane-1-carboxylate], the viability at 48 h, 25 µM came to 1.62%.

Take `O=C(CCl)NC1CCC2(CCC1(F)F)OCCO2` (centres unmarked) [5-G09, 2-chloro-N-{9,9-difluoro-1,4-dioxaspiro[4.6]undecan-8-yl}acetamide]: the viability at 48 h, 25 µM was 5.9%.

`CC(CNC(=O)C(C)Cl)Oc1cccc(Cl)c1` (centres unmarked) [6-F13, 2-chloro-N-[2-(3-chlorophenoxy)propyl]propanamide]: the viability at 48 h, 25 µM came out at 103%.

For the compound `O=C(CCl)NCCOc1ccc(F)cc1` [6-A08, 2-chloro-N-[2-(4-fluorophenoxy)ethyl]acetamide], the viability at 48 h, 25 µM came out at 1.34%.

Turning to `Cc1cccc(NC(=O)C(C#N)=Cc2cc(C)n(C3CC3)c2C)c1` [9-D17, 2-cyano-3-(1-cyclopropyl-2,5-dimethyl-1H-pyrrol-3-yl)-N-(3-methylphenyl)prop-2-enamide], the viability at 48 h, 25 µM was found to be 94.3%.

In the case of `N#CC(=Cc1c(F)cccc1F)C(=O)Nc1ccccc1Cl` [9-I20, N-(2-chlorophenyl)-2-cyano-3-(2,6-difluorophenyl)prop-2-enamide], the viability at 48 h, 25 µM amounted to 114%.

With `Cc1ccsc1C=C(C#N)C(=O)N1CCN(c2ccccc2)CC1` [8-B13, 3-(3-methylthiophen-2-yl)-2-(4-phenylpiperazine-1-carbonyl)prop-2-enenitrile], the viability at 48 h, 25 µM is 92.4%.

For `Cc1nn(C)c(C)c1NC(=O)C(C)Cl` (centres unmarked) [6-C07, 2-chloro-N-(1,3,5-trimethyl-1H-pyrazol-4-yl)propanamide], the viability at 48 h, 25 µM worked out at 116%.

On to `C=CC(=O)N(C)CC(=O)N1CCCC1c1nc(C)no1` (centres unmarked) [2-M04, N-methyl-N-{2-[2-(3-methyl-1,2,4-oxadiazol-5-yl)pyrrolidin-1-yl]-2-oxoethyl}prop-2-enamide], for which the viability at 48 h, 25 µM turned out to be 78.5%.

`O=C(NC1CC1)C1(C(=O)N2CCSSCC2)CCC1` [10-B21, N-cyclopropyl-1-(1,2,5-dithiazepane-5-carbonyl)cyclobutane-1-carboxamide]: the viability at 48 h, 25 µM was found to be 95.1%.

`CN(Cc1cc(-c2ccccc2)[nH]n1)C(=O)CCl` [5-D15, 2-chloro-N-methyl-N-[(5-phenyl-1H-pyrazol-3-yl)methyl]acetamide]: the viability at 48 h, 25 µM is 0.109%.

As to `C=CCNC(=O)C(C#N)=Cc1cccc(C(F)(F)F)c1` [8-L09, 2-cyano-N-(prop-2-en-1-yl)-3-[3-(trifluoromethyl)phenyl]prop-2-enamide], the viability at 48 h, 25 µM was found to be 96.8%.

Take `Cc1c(CN(CC2CC=CCC2)C(=O)CCl)cnn1C` (centres unmarked) [5-C14, 2-chloro-N-[(cyclohex-3-en-1-yl)methyl]-N-[(1,5-dimethyl-1H-pyrazol-4-yl)methyl]acetamide]: the viability at 48 h, 25 µM was found to be 0.469%.

Take `CCc1cccc(CC)c1NC(=O)CCl` [4-F10, 2-chloro-N-(2,6-diethylphenyl)acetamide]: the viability at 48 h, 25 µM amounted to 99.1%.

For the compound `CC(C)NC(=O)C(C#N)=Cc1ccc(Cl)cc1Cl` [9-K07, 2-cyano-3-(2,4-dichlorophenyl)-N-(propan-2-yl)prop-2-enamide], the viability at 48 h, 25 µM was 49.5%.

Consider `Cc1ccc(NC(=O)CCl)cc1S(=O)(=O)N1CCOCC1` [4-L07, 2-chloro-N-[4-methyl-3-(morpholine-4-sulfonyl)phenyl]acetamide], for which the viability at 48 h, 25 µM is 0.278%.

On to `C=CC(=O)NCc1cn(C(F)F)c2ccccc12` [2-F11, N-{[1-(difluoromethyl)-1H-indol-3-yl]methyl}prop-2-enamide], for which the viability at 48 h, 25 µM was 49%.

In the case of `COc1ccc(C=C(C#N)C(=O)Nc2cc(C)ccc2C)cc1Cl` [9-B22, 3-(3-chloro-4-methoxyphenyl)-2-cyano-N-(2,5-dimethylphenyl)prop-2-enamide], the viability at 48 h, 25 µM came to 92.9%.

Consider `C=CC(=O)N1CCC(C(=O)NCc2nccn2C)(c2ccccc2)CC1` [3-I10, N-[(1-methyl-1H-imidazol-2-yl)methyl]-4-phenyl-1-(prop-2-enoyl)piperidine-4-carboxamide], for which the viability at 48 h, 25 µM is 92.9%.

For the compound `C=CC(=O)Nc1ncc(C2CCCC(C)C2)s1` (centres unmarked) [1-J16, N-[5-(3-methylcyclohexyl)-1,3-thiazol-2-yl]prop-2-enamide], the viability at 48 h, 25 µM was found to be 0.801%.
